Values joined by “and” are separate entries in the source; they are usually repeats but may differ in a detail not shown here. Equal values may be shown once.
Key:
[1] = tested on: patients with hematologic malignancies; parameters: method as in PMID 31092402; conditions: cited from earlier work
WT HAP1 cells = assay: HAP1 WT cytotoxicity (WST-1 assay) with and without UVA; type: cell-based; conditions: for WST-1 raw signal (Figure 5h): replicates
Protocol: (§1) Fig. 5 Comparison of G4 ligand photosensitization. […] Vertical axis, fractional survival, horizontal axis log10 drug concentration (M) (f) Representative images of CPD immunofluorescent staining under UV and drug treatment conditions for U2OS cells, quantified from biological duplicates in (g) (h) Scale bar = 100um. U2OS cells were treated with drug or vehicle control, then immediately irradiated with UVA 125 mJ/cm^2; and fixed 1 h later for immunofluorescence staining with CPD antibody. g Distribution of mean intensity of CPD level per cell (total n = in labels), with two biological repeats per condition. Vertical axis, mean CPD intensity per cell, horizontal axis, conditions (h) WT or KO XPA HAP1 cells assayed for cytotoxicity. Vertical axis, fractional survival (WST-1 assay). The horizontal axis, log10 drug concentration (M). Error bars = standard deviation of the mean. Three biological repeats per condition.
(§2) Human epidermal keratinocytes (HEKa) cells were sourced from Thermo Fisher Scientific, and were grown in EpiLife™ Medium with HKGS. HAP WT and XPA knockout cell lines (Horizon Discovery) were cultured in IMDM, 10% FCS. Human HCT116 cells, U2OS cells (ATCC) were grown in McCoy’s 5 A medium with 10% FBS and L-glutamine. All cell lines are mycoplasma free and have been authenticated by STR or SNP profiling. CX-5461 was provided by Senhwa Biosciences, Inc. PDS is from Sigma-Aldrich, BRACO-19 from Alfa Chemistry, PhENDC3 is from Sigma-Aldrich, γ -H2AX antibody from Abcam (1:1000 for IF) and CPD antibody (1:1500) from Cosmo Bio Ltd. (Catalog number: CAC-NM-DAD-001). The WST-1 assay was performed as previously described, γ H2AX foci staining was performed as previously described. Immunofluorescence staining of CPD was performed according to the protocol from the manufacturer (Cosmo Bio Ltd).

HCT116 cells = assay: HCT116 cytotoxicity (WST-1 assay) with and without UVA radiation; type: cell-based, Human
Protocol: as §1, §2

Compound: Cc1cnc(CNC(=O)c2c(=O)c3ccc(N4CCCN(C)CC4)nc3n3c2sc2ccccc23)cn1 [CX-5461]
- dose-limiting toxicities (kind) [1]: palmar–plantar erythrodysesthesia and phototoxicity
- dose recommended for further study ([1]; intravenously once every 3 weeks (q3w)): 170 mg/m^2
- WST-1 raw signal (Figure 5h) (WT HAP1 cells; conc 1.00E-07, 125 mJ/cm2 WT): 0.124 and 0.1238
- WST-1 raw signal (Figure 5h) (WT HAP1 cells; conc 1.00E-07, WT No UV): 0.1248 and 0.1255
- WST-1 raw signal (Figure 5h) (WT HAP1 cells; conc 1.25E-08, 125 mJ/cm2 WT): 0.124 and 0.1239
- WST-1 raw signal (Figure 5h) (WT HAP1 cells; conc 1.25E-08, WT No UV): 2.9461 and 2.8715
- WST-1 raw signal (Figure 5h) (WT HAP1 cells; conc 1.56E-09, 125 mJ/cm2 WT): 1.6148 and 1.5014
- WST-1 raw signal (Figure 5h) (WT HAP1 cells; conc 1.56E-09, WT No UV): 3.4383 and 3.4235
- WST-1 raw signal (Figure 5h) (WT HAP1 cells; conc 2.00E-07, 125 mJ/cm2 WT): 0.1302 and 0.1263
- WST-1 raw signal (Figure 5h) (WT HAP1 cells; conc 2.00E-07, WT No UV): 0.1284 and 0.1271
- WST-1 raw signal (Figure 5h) (WT HAP1 cells; conc 2.50E-08, 125 mJ/cm2 WT): 0.1237 and 0.1243
- WST-1 raw signal (Figure 5h) (WT HAP1 cells; conc 2.50E-08, WT No UV): 0.7915 and 0.7888
- WST-1 raw signal (Figure 5h) (WT HAP1 cells; conc 3.13E-09, 125 mJ/cm2 WT): 0.139 and 0.1466
- WST-1 raw signal (Figure 5h) (WT HAP1 cells; conc 3.13E-09, WT No UV): 3.3417 and 3.4651
- WST-1 raw signal (Figure 5h) (WT HAP1 cells; conc 3.91E-10, 125 mJ/cm2 WT): 3.3908 and 3.3132
- WST-1 raw signal (Figure 5h) (WT HAP1 cells; conc 3.91E-10, WT No UV): 3.3655 and 3.4278
- WST-1 raw signal (Figure 5h) (WT HAP1 cells; conc 5.00E-08, 125 mJ/cm2 WT): 0.1258 and 0.124
- WST-1 raw signal (Figure 5h) (WT HAP1 cells; conc 5.00E-08, WT No UV): 0.1245 and 0.1268
- WST-1 raw signal (Figure 5h) (WT HAP1 cells; conc 6.25E-09, 125 mJ/cm2 WT): 0.1242 and 0.126
- WST-1 raw signal (Figure 5h) (WT HAP1 cells; conc 6.25E-09, WT No UV): 3.3238 and 3.2658
- WST-1 raw signal (Figure 5h) (WT HAP1 cells; conc 7.81E-10, 125 mJ/cm2 WT): 3.145 and 2.7907
- WST-1 raw signal (Figure 5h) (WT HAP1 cells; conc 7.81E-10, WT No UV): 3.4055 and 3.3833
- effect of UVA radiation on cytotoxicity (WT HAP1 cells; with UVA): dramatically increased the cytotoxicity
- WST-1 reading (source data of fractional survival) (HCT116 cells; 1.00E-07 M, 5mJ/cm2 UV): 0.1726 and 0.1634
- WST-1 reading (source data of fractional survival) (HCT116 cells; 1.00E-07 M, 125 mJ/cm2 UV): 0.1356 and 0.1403
- WST-1 reading (source data of fractional survival) (HCT116 cells; 1.00E-07 M, no UV): 0.3459 and 0.3709
- WST-1 reading (source data of fractional survival) (HCT116 cells; 1.25E-08 M, 5mJ/cm2 UV): 1.8446 and 1.2623
- WST-1 reading (source data of fractional survival) (HCT116 cells; 1.25E-08 M, 125 mJ/cm2 UV): 0.2266 and 0.2178
- WST-1 reading (source data of fractional survival) (HCT116 cells; 1.25E-08 M, no UV): 2.7124 and 3.0988
- WST-1 reading (source data of fractional survival) (HCT116 cells; 1.56E-09 M, 5mJ/cm2 UV): 3.1522 and 3.1435
- WST-1 reading (source data of fractional survival) (HCT116 cells; 1.56E-09 M, 125 mJ/cm2 UV): 1.3637 and 1.8262
- WST-1 reading (source data of fractional survival) (HCT116 cells; 1.56E-09 M, no UV): 3.1762 and 3.2869
- WST-1 reading (source data of fractional survival) (HCT116 cells; 2.00E-07 M, 5mJ/cm2 UV): 0.1417 and 0.1383
- WST-1 reading (source data of fractional survival) (HCT116 cells; 2.00E-07 M, 125 mJ/cm2 UV): 0.1411 and 0.1324
- WST-1 reading (source data of fractional survival) (HCT116 cells; 2.00E-07 M, no UV): 0.3331 and 0.2744
- WST-1 reading (source data of fractional survival) (HCT116 cells; 2.50E-08 M, 5mJ/cm2 UV): 0.4834 and 0.4002
- WST-1 reading (source data of fractional survival) (HCT116 cells; 2.50E-08 M, 125 mJ/cm2 UV): 0.1513 and 0.1801
- WST-1 reading (source data of fractional survival) (HCT116 cells; 2.50E-08 M, no UV): 2.611 and 2.0841
- WST-1 reading (source data of fractional survival) (HCT116 cells; 3.13E-09 M, 5mJ/cm2 UV): 2.2833 and 2.9624
- WST-1 reading (source data of fractional survival) (HCT116 cells; 3.13E-09 M, 125 mJ/cm2 UV): 0.7443 and 0.527
- WST-1 reading (source data of fractional survival) (HCT116 cells; 3.13E-09 M, no UV): 3.0831 and 3.1401
- WST-1 reading (source data of fractional survival) (HCT116 cells; 3.91E-10 M, 5mJ/cm2 UV): 3.2465 and 3.2794
- WST-1 reading (source data of fractional survival) (HCT116 cells; 3.91E-10 M, 125 mJ/cm2 UV): 2.6106 and 3.2813
- WST-1 reading (source data of fractional survival) (HCT116 cells; 3.91E-10 M, no UV): 3.2563 and 3.2975
- WST-1 reading (source data of fractional survival) (HCT116 cells; 5.00E-08 M, 5mJ/cm2 UV): 0.1995 and 0.2071
- WST-1 reading (source data of fractional survival) (HCT116 cells; 5.00E-08 M, 125 mJ/cm2 UV): 0.1444 and 0.1401
- WST-1 reading (source data of fractional survival) (HCT116 cells; 5.00E-08 M, no UV): 0.8754 and 0.871
- WST-1 reading (source data of fractional survival) (HCT116 cells; 6.25E-09 M, 5mJ/cm2 UV): 2.1762 and 2.4422
- WST-1 reading (source data of fractional survival) (HCT116 cells; 6.25E-09 M, 125 mJ/cm2 UV): 0.3527 and 0.3295
- WST-1 reading (source data of fractional survival) (HCT116 cells; 6.25E-09 M, no UV): 2.9424 and 3.2905
- WST-1 reading (source data of fractional survival) (HCT116 cells; 7.81E-10 M, 5mJ/cm2 UV): 3.2172 and 3.1228
- WST-1 reading (source data of fractional survival) (HCT116 cells; 7.81E-10 M, 125 mJ/cm2 UV): 2.9376 and 2.9926
- WST-1 reading (source data of fractional survival) (HCT116 cells; 7.81E-10 M, no UV): 3.2642 and 3.2669
- potentiation of UVA-induced cytotoxicity (HCT116 cells; UV 5 mJ/cm^2 and 125 mJ/cm^2): Strong potentiation

Source: PMC9232501, “Results of the phase I CCTG IND.231 trial of CX-5461 in patients with advanced solid tumors enriched for DNA-repair deficiencies” (Nature Communications, 2022)
